Source: ChEMBL document CHEMBL1201862, “PubChem BioAssay data set” (2004)
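Briefly, cells in 96-well plates were exposed to five compound concentrations for 48 h, and endpoints were estimated by linear interpolation. Abbreviation: GI50, concentration required for 50% inhibition of growth.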 Active and inactive are the calls of the source. No stated cut-off is given here; in the data, active = GI50 up to about 1.1 µM and inactive = higher.

Experiments:
Experiment in all cases: NCI tumour cell line growth inhibition, 48 h
[1] = tested on: UACC-62
[2] = tested on: SNB-19
[3] = tested on: U-251
[4] = tested on: HOP-92
[5] = tested on: NCI/ADR-RES
[6] = tested on: HCC 2998
[7] = tested on: HL-60
[8] = tested on: NCI-H460
[9] = tested on: RPMI-8226
[10] = tested on: MCF7
[11] = tested on: OVCAR-8
[12] = tested on: KM12
[13] = tested on: NCI-H226
[14] = tested on: CAKI-1
[15] = tested on: RXF 393
[16] = tested on: NCI-H522
[17] = tested on: COLO 205
[18] = tested on: TK-10
[19] = tested on: ACHN
[20] = tested on: A498

Compound | GI50 [1] | GI50 [2] | GI50 [3] | GI50 [4] | GI50 [5] | GI50 [6] | GI50 [7] | GI50 [8] | GI50 [9] | GI50 [10] | GI50 [11] | GI50 [12] | GI50 [13] | GI50 [14] | GI50 [15] | GI50 [16] | GI50 [17] | GI50 [18] | GI50 [19] | GI50 [20]
O=c1cc(O)ccn1C1C=C(CO)C(O)C1O (centres undefined) | > 625 µM (inactive) | > 625 µM (inactive) | > 625 µM (inactive) | 192 µM (inactive) | > 625 µM (inactive) | > 625 µM (inactive) | 183 µM (inactive) | 131 µM (inactive) | 411 µM (inactive) | > 625 µM (inactive) | > 625 µM (inactive) | > 625 µM (inactive) | > 625 µM (inactive) | > 625 µM (inactive) | > 625 µM (inactive) | – | – | – | – | –
Cc1c(/C=N/NC(=O)c2ccccc2O)c(=O)n(-c2ccccc2)n1C | > 100 µM (inactive) | > 100 µM (inactive) | > 100 µM (inactive) | > 100 µM (inactive) | – | > 100 µM (inactive) | 28.1 µM (inactive) | 47.1 µM (inactive) | 48.2 µM (inactive) | – | > 100 µM (inactive) | > 100 µM (inactive) | > 100 µM (inactive) | – | 49.2 µM (inactive) | > 100 µM (inactive) | > 100 µM (inactive) | > 100 µM (inactive) | > 100 µM (inactive) | –
CCOC(=O)CCC(NC(=O)c1ccc(Nc2nc3cc(C(F)(F)F)ccc3nc2C(=O)OCC)cc1)C(=O)OCC (centres undefined) | 9.16 µM (inactive) | 10.7 µM (inactive) | 11.3 µM (inactive) | 0.975 µM (active) | 12.2 µM (inactive) | 30.8 µM (inactive) | > 100 µM (inactive) | 18 µM (inactive) | 24.9 µM (inactive) | > 10 µM (inactive) | 5.45 µM (inactive) | > 10 µM (inactive) | – | – | – | 11.2 µM (inactive) | 4.14 µM (inactive) | – | 13.8 µM (inactive) | –
O=C(/C=C(\O)C(=O)O)/C=C(\O)c1ccccc1Cl | > 100 µM (inactive) | > 100 µM (inactive) | > 100 µM (inactive) | > 100 µM (inactive) | – | > 100 µM (inactive) | > 100 µM (inactive) | > 100 µM (inactive) | > 100 µM (inactive) | – | > 100 µM (inactive) | > 100 µM (inactive) | > 100 µM (inactive) | > 100 µM (inactive) | > 100 µM (inactive) | > 100 µM (inactive) | > 100 µM (inactive) | > 100 µM (inactive) | > 100 µM (inactive) | > 100 µM (inactive)
CC(=O)Nc1ccccc1-c1nc2ccccc2nc1C | > 100 µM (inactive) | > 100 µM (inactive) | > 100 µM (inactive) | > 100 µM (inactive) | – | – | > 100 µM (inactive) | > 100 µM (inactive) | > 100 µM (inactive) | – | > 100 µM (inactive) | > 100 µM (inactive) | > 100 µM (inactive) | > 100 µM (inactive) | – | > 100 µM (inactive) | > 100 µM (inactive) | > 100 µM (inactive) | > 100 µM (inactive) | > 100 µM (inactive)
CC1(O)CCC2(C#N)CCC1C2O (centres undefined) | > 100 µM (inactive) | > 100 µM (inactive) | > 100 µM (inactive) | – | – | > 100 µM (inactive) | > 100 µM (inactive) | 43.9 µM (inactive) | 26.5 µM (inactive) | – | > 100 µM (inactive) | > 100 µM (inactive) | > 100 µM (inactive) | > 100 µM (inactive) | > 100 µM (inactive) | 50.6 µM (inactive) | 33.9 µM (inactive) | > 100 µM (inactive) | > 100 µM (inactive) | > 100 µM (inactive)
COCOc1ccc(Cn2c(=O)n(C)c(=O)c3c2ncn3C)cc1[N+](=O)[O-] | > 100 µM (inactive) | > 100 µM (inactive) | > 100 µM (inactive) | – | – | > 100 µM (inactive) | > 100 µM (inactive) | > 100 µM (inactive) | 66.2 µM (inactive) | – | > 100 µM (inactive) | > 100 µM (inactive) | 46.3 µM (inactive) | – | > 100 µM (inactive) | > 100 µM (inactive) | > 100 µM (inactive) | > 100 µM (inactive) | > 100 µM (inactive) | –
O=C1c2ccccc2C(=O)c2c(OCCOCCO)cccc21 | 0.585 µM (active) | > 100 µM (inactive) | > 100 µM (inactive) | 12.6 µM (inactive) | > 100 µM (inactive) | – | > 100 µM (inactive) | 54.7 µM (inactive) | – | 74.6 µM (inactive) | 70.1 µM (inactive) | 46.6 µM (inactive) | – | 21.9 µM (inactive) | 48.6 µM (inactive) | 52.6 µM (inactive) | > 100 µM (inactive) | 53.6 µM (inactive) | 43.9 µM (inactive) | –
CC(=O)NC(CCCNC(=O)OCc1ccccc1)C(=O)O (centres undefined) | > 100 µM (inactive) | > 100 µM (inactive) | > 100 µM (inactive) | > 100 µM (inactive) | – | > 100 µM (inactive) | – | > 100 µM (inactive) | > 100 µM (inactive) | – | > 100 µM (inactive) | > 100 µM (inactive) | > 100 µM (inactive) | > 100 µM (inactive) | > 100 µM (inactive) | > 100 µM (inactive) | > 100 µM (inactive) | > 100 µM (inactive) | > 100 µM (inactive) | > 100 µM (inactive)
CCc1nc2ccccc2c(=O)n1/N=C(\N=N\c1ccc(Cl)cc1)c1ccccc1 | 30.8 µM (inactive) | 23.4 µM (inactive) | 26.9 µM (inactive) | 13.9 µM (inactive) | – | 29.2 µM (inactive) | 42.4 µM (inactive) | 27.4 µM (inactive) | 30.7 µM (inactive) | – | 35.2 µM (inactive) | 18.2 µM (inactive) | 21.8 µM (inactive) | 17 µM (inactive) | 14.2 µM (inactive) | 20.1 µM (inactive) | 31.3 µM (inactive) | 31 µM (inactive) | 31.8 µM (inactive) | 26.7 µM (inactive)
COc1ccc(-c2c(-c3ccccc3)c(C)nc3nc(SC)nc(SC)c23)cc1OC | 11.3 µM (inactive) | 26.7 µM (inactive) | 9.1 µM (inactive) | 4.39 µM (inactive) | – | 25 µM (inactive) | 3.14 µM (inactive) | 2.12 µM (inactive) | 2.82 µM (inactive) | 10.6 µM (inactive) | – | 18.1 µM (inactive) | 17.3 µM (inactive) | 0.764 µM (active) | 17.1 µM (inactive) | 4.61 µM (inactive) | 11.6 µM (inactive) | 23.6 µM (inactive) | 19.9 µM (inactive) | 15.7 µM (inactive)
Cc1c(N2CCN(C)CC2)nc2ccc(Cl)cc2c1-c1ccccc1 | 15.7 µM (inactive) | 25.2 µM (inactive) | 17.3 µM (inactive) | – | – | > 10 µM (inactive) | 12.7 µM (inactive) | 17.5 µM (inactive) | 18.9 µM (inactive) | – | 16.6 µM (inactive) | 12.4 µM (inactive) | – | 17.3 µM (inactive) | 15.9 µM (inactive) | 19.9 µM (inactive) | 16.1 µM (inactive) | > 10 µM (inactive) | 22 µM (inactive) | 12.2 µM (inactive)
C[C@H]1COC2(c3ccccc3)CCC(=O)N12 (some centres undefined) | > 100 µM (inactive) | > 100 µM (inactive) | > 100 µM (inactive) | > 100 µM (inactive) | – | – | – | > 100 µM (inactive) | > 100 µM (inactive) | – | > 100 µM (inactive) | > 100 µM (inactive) | – | > 100 µM (inactive) | > 100 µM (inactive) | – | > 100 µM (inactive) | > 100 µM (inactive) | > 100 µM (inactive) | > 100 µM (inactive)
N#C/C(=C\c1ccc(C(O)P(=O)(O)O)cc1)C(N)=O (centres undefined) | 7.83 µM (inactive) | > 100 µM (inactive) | 60.5 µM (inactive) | > 100 µM (inactive) | – | 3.66 µM (inactive) | 6.01 µM (inactive) | 6.44 µM (inactive) | > 100 µM (inactive) | – | > 100 µM (inactive) | > 100 µM (inactive) | > 100 µM (inactive) | – | – | > 100 µM (inactive) | > 100 µM (inactive) | > 100 µM (inactive) | 14.5 µM (inactive) | > 100 µM (inactive)
NC(=S)NS(=O)(=O)c1ccc(Cl)cc1Cl | > 100 µM (inactive) | > 100 µM (inactive) | > 100 µM (inactive) | > 100 µM (inactive) | > 100 µM (inactive) | > 100 µM (inactive) | > 100 µM (inactive) | > 100 µM (inactive) | > 100 µM (inactive) | – | > 100 µM (inactive) | > 100 µM (inactive) | > 100 µM (inactive) | > 100 µM (inactive) | > 100 µM (inactive) | > 100 µM (inactive) | > 100 µM (inactive) | > 100 µM (inactive) | > 100 µM (inactive) | –
O=C(CSc1nnc(-c2ccc(/N=C\c3ccc(Cl)cc3)cc2)o1)Nc1ccccc1 | 73.8 µM (inactive) | 53 µM (inactive) | 52 µM (inactive) | – | – | – | 34.4 µM (inactive) | > 100 µM (inactive) | 31.6 µM (inactive) | – | > 100 µM (inactive) | > 10 µM (inactive) | > 100 µM (inactive) | – | 33 µM (inactive) | 16.9 µM (inactive) | > 100 µM (inactive) | > 100 µM (inactive) | > 100 µM (inactive) | –
OCC1OC(OCC(O)C(O)C(O)C(/C=N/Nc2ccccc2)=N/Nc2ccccc2)C(O)C(O)C1O (centres undefined) | – | > 100 µM (inactive) | > 100 µM (inactive) | 34.8 µM (inactive) | > 100 µM (inactive) | > 100 µM (inactive) | > 100 µM (inactive) | 30.9 µM (inactive) | > 100 µM (inactive) | 63.1 µM (inactive) | > 100 µM (inactive) | > 100 µM (inactive) | – | 34.4 µM (inactive) | – | – | 44.6 µM (inactive) | > 100 µM (inactive) | 51.9 µM (inactive) | –
